Test results taken from PubChem BioAssay (NCI).
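A five-concentration, 48-hour dose response in 96-well plates underlies each endpoint, interpolated linearly between surrounding concentrations. The concentration for 50% growth inhibition is given as GI50. TGI: total growth inhibition.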

Experiments:
Assay in all cases: growth of human tumour cells (NCI), 48 h
A549 NSCLC = test system: A549 NSCLC
ACHN renal = test system: ACHN renal
HCT-116 colon = test system: HCT-116 colon
HT29 colon = test system: HT29 colon
K-562 leukemia = test system: K-562 leukemia
OVCAR-4 ovarian = test system: OVCAR-4 ovarian
SK-MEL-2 melanoma = test system: SK-MEL-2 melanoma
SK-MEL-5 melanoma = test system: SK-MEL-5 melanoma
SW-620 colon = test system: SW-620 colon
U251 CNS = test system: U251 CNS

ClCc1c(Cl)c(Cl)c(Cl)c(CCl)c1Cl
GI50 (A549 NSCLC): 4.8 µM | TGI (A549 NSCLC): 16.3 µM | GI50 (ACHN renal): 1.64 µM | TGI (ACHN renal): 3 µM | GI50 (HCT-116 colon): 1.71 µM | TGI (HCT-116 colon): 3.17 µM | GI50 (HT29 colon): 1.79 µM | TGI (HT29 colon): 3.3 µM | GI50 (K-562 leukemia): 1.8 µM | TGI (K-562 leukemia): 4.37 µM | GI50 (OVCAR-4 ovarian): 1.62 µM | TGI (OVCAR-4 ovarian): 2.98 µM | GI50 (SK-MEL-2 melanoma): 2.2 µM | TGI (SK-MEL-2 melanoma): 5.07 µM | GI50 (SK-MEL-5 melanoma): 2.23 µM | TGI (SK-MEL-5 melanoma): 6.25 µM | GI50 (SW-620 colon): 1.71 µM | TGI (SW-620 colon): 3.12 µM | GI50 (U251 CNS): 1.71 µM | TGI (U251 CNS): 3.08 µM

COC(=O)c1cc(C#Cc2cc(OC)ccc2OC)ccc1OC
TGI (A549 NSCLC): > 100 µM | TGI (ACHN renal): > 100 µM | GI50 (HCT-116 colon): 37.7 µM | TGI (HCT-116 colon): > 100 µM | TGI (HT29 colon): > 100 µM | TGI (K-562 leukemia): > 100 µM | TGI (OVCAR-4 ovarian): > 100 µM | TGI (SK-MEL-2 melanoma): > 100 µM | TGI (SK-MEL-5 melanoma): 53.1 µM | TGI (SW-620 colon): > 100 µM | TGI (U251 CNS): > 100 µM

CN(C)c1ccc(N=Nc2ccccn2)cc1
TGI (A549 NSCLC): > 100 µM | TGI (ACHN renal): > 100 µM | TGI (HCT-116 colon): > 100 µM | TGI (HT29 colon): > 100 µM | TGI (K-562 leukemia): > 100 µM | TGI (OVCAR-4 ovarian): > 100 µM | TGI (SK-MEL-2 melanoma): > 100 µM | TGI (SK-MEL-5 melanoma): > 100 µM | TGI (SW-620 colon): > 100 µM | TGI (U251 CNS): 33 µM

COc1cc[n+](C)cc1
TGI (A549 NSCLC): > 100 µM | TGI (HCT-116 colon): > 100 µM | TGI (HT29 colon): > 100 µM | TGI (K-562 leukemia): > 100 µM | TGI (OVCAR-4 ovarian): > 100 µM | TGI (SK-MEL-2 melanoma): > 100 µM | TGI (SK-MEL-5 melanoma): > 100 µM | TGI (SW-620 colon): > 100 µM | TGI (U251 CNS): > 100 µM

COc1ccc(NC(=O)/C(CC2=Nc3ccc([N+](=O)[O-])cc3NC2O)=N\NC(=O)C[N+](C)(C)C)c(OC)c1 (centres undefined)
TGI (A549 NSCLC): > 100 µM | TGI (ACHN renal): > 100 µM | TGI (HCT-116 colon): > 100 µM | TGI (HT29 colon): > 100 µM | TGI (OVCAR-4 ovarian): > 100 µM | TGI (SK-MEL-2 melanoma): > 100 µM | TGI (SK-MEL-5 melanoma): 96.3 µM | TGI (SW-620 colon): > 100 µM | TGI (U251 CNS): > 100 µM

Cc1nc2ccccc2c(=O)[nH]1
TGI (A549 NSCLC): > 100 µM | TGI (ACHN renal): > 100 µM | TGI (HCT-116 colon): > 100 µM | TGI (HT29 colon): > 100 µM | TGI (K-562 leukemia): > 100 µM | TGI (OVCAR-4 ovarian): > 100 µM | TGI (SK-MEL-2 melanoma): > 100 µM | TGI (SK-MEL-5 melanoma): > 100 µM | TGI (SW-620 colon): > 100 µM | TGI (U251 CNS): > 100 µM
